Reference: patent US12168651B1, “9-(6-flouro-2-hydroxypyridin-3-yl)-10-(2-hydroxyethyl)-3,6-diphenyl-3,4,6,7,9,10-hexahydroacridine1,8(2H,5H)-dione as an antimicrobial compound” (KING FAISAL UNIVERSITY, priority 2023, dated 2024)

Legend:
Format in all cases: cell-based
Conditions in all cases: after 10, 20, 40 and 60 minutes at all dilutions 1:100, 1:200, 1:400, 1:800
Staphylococcus aureus = test: Antimicrobial screening by agar dilution, St. Aereus
Protocol: (§1) The antibacterial properties of the synthesized compound (9-(6-flouro-2-hydroxypyridin-3-yl)-10-(2-hydroxyethyl)-3,6-diphenyl-3,4,6,7,9,10-hexahydroacridine1,8(2H,5H)-dione) were studied by the method of agar dilution. Test solutions of each compound was prepared in concentration of 1% using dimethylformamide as a solvent then they are diluted in physiological solution to obtain the final experimental dilutions 1:100, 1:200, 1:400, 1:800. The effect of these substances are compared with furacillin in a controllable study. The testing microbes used were gram positive bacteria Staphylococcus aureus, gram negative bacteria Pseudomonas aeruginosa and Escherichia coli and Candida albicans fungus. The experiments used for this survey were meat-pentonlu agar (EPA) for cultivation of bacteria and Saburo environment for the fungus. Each experiment used 1 mL of test solution on each plate […]. Two drops of emulsified with microbes feel were added. All experimental samples were taken from the agar after 10, 20, 40, 60 minutes in the environment on the basis of Patrk planted. The bacteria were cultivated at a temperature of 37° C. for 1 day and the mushroom was kept in a thermostat for […] at a temperature of 28° C. Then results were checked.

Escherichia coli = test: Antimicrobial screening by agar dilution, E. Coli
Protocol: as §1

Pseudomonas aeruginosa = test: Antimicrobial screening by agar dilution, Ps. Aeroqonaza
Protocol: as §1

Candida albicans = test: Antimicrobial screening by agar dilution, Candida albicans
Protocol: as §1

Measured: inhibition activity (in words)

O=C1CC(c2ccccc2)CC2=C1C(c1cc3cc(F)ccc3nc1O)C1=C(CC(c3ccccc3)CC1=O)N2CCO (stereo not shown)
the most higher inhibition activity: all assays above
